Experimental findings from US20240082293A1, “A VAGINAL CONTRACEPTIVE COMPOSITION FOR REINFORCEMENT OF MUCUS BARRIER PROPERTIES” (CIRQLE BIOMEDICAL CONTRACEPTION ApS, priority 2019, published 2024) are described below.

In this experiment the test system is human sperm penetration through human ovulatory cervical mucus. The experiment in a line: Sperm penetration assay through ovulatory cervical mucus in capillaries (phase contrast microscopy). The format is cell-based. Particulars: for sperm penetration through mucus treated with poly-L-lysine (barrier reinforcing effect): PLL 5 mg/mL in 32.5 mM lactic acid solution, 30 minutes after exposure to undiluted sperm. The procedure:
Semen samples of patients and volunteers collected at the Andrology, Sexual Medicine, Transmedicine, clinic (ANOVA, Karolinska University Hospital, Sweden) were run through standard semen kinematic analyses and sperm penetration assays no later than 3 h after collection. Data were obtained for the collection time, abstinence time, and semen volume. Semen was gently liquefied for 30 min on a rocker in an incubation chamber heated up to 37° C., after complete collection of ejaculates by masturbation. The viscosity of semen was determined visually and by pipetting. Semen was microscopically analysed by pipetting 6 μl of specimen in pre-warmed Leja® (Netherland) counting chamber slides (20 micron). Subsequently, specimens were assessed via clinical ECLIPSE 50i microscope (Nikon Instruments, Japan) equipped with stage heater MS 100 (37° C., Linkam Scientific Instruments, UK), 10× objective (Ph1) and 0.5× charge coupled device camera UI-1540LE-M-HQ (IDS Imaging Development Systems GmbH, Germany) with total magnification of 5×. The system was connected to the Computer Aided Semen Analysis software QualiSperm (v3.0.9.486, AKYmed, Switzerland). Beside the sperm concentration [106/m1], the progressive motility [%], motility [%], immotility [%], velocity [μm/s], sperm size [μm2], and number of cells were measured. Semen samples meeting the following criteria were included in this study: volume of >1.5 ml, concentration of >15×10^6/mland >40% progressive motility. These criteria reflect reference limits of the World Health Organization (WHO) (“WHO Laboratory Manual for the Examination and Processing of Human Semen” 2010) and values for normal spermatozoa as stated in Bjorndahl (Lars Bjorndahl. 2011. “What Is Normal Semen Quality? On the Use and Abuse of Reference Limits for the Interpretation of Semen Analysis Results.” Human Fertility 14 (3): 179-86). In each run, ten values were generated by assessing five fields in two chambers.
Ovulatory cervical mucus (CVM) (the CVM with highest penetrability) was collected from healthy donors at the Karolinska University Hospital. […]

With poly-L-lysine [66 KDa PLL], the “sperm penetration through mucus treated with poly-L-lysine (barrier reinforcing effect)” value was “able to prevent the entrance of the sperm”. Moreover, the “point at which no sperm is seen (distance into the mucus)” value (sperm numbers assessed 30 minutes after exposure to undiluted sperm, polymer in lactic acid solution) is listed as “around 3 cm”.

Turning to “poly-L-lysine [low molecular weight PLL]”, the “sperm penetration through mucus treated with poly-L-lysine (barrier reinforcing effect)” value is given as “did not have any effect”.
